Where two headings read alike, the source gives them in different places.

Experiment [1] addresses stromelysin (Homo sapiens, UniProt P08254). Description: Inhibition of stromelysin: hydrolysis of substance P, semicontinuous HPLC-based assay. In kind it is biochemical. The conditions noted are these: for IC50: substrate substance P.
For experiment [2], the target named is T1, human rheumatoid synovial collagenase (Homo sapiens, UniProt P03956).
T1 sequence (P03956 100-469): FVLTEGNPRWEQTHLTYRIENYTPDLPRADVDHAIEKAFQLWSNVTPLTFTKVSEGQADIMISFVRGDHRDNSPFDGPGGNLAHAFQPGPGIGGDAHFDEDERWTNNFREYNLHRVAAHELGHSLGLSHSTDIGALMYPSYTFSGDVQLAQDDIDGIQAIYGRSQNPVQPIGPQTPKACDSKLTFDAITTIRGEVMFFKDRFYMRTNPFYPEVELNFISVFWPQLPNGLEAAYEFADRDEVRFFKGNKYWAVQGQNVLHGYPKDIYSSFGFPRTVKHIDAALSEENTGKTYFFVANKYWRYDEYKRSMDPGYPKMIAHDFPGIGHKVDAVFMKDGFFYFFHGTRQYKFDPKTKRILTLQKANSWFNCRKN
The conditions noted are these: cited from earlier work.

In experiment [3] the target is rabbit bone proteoglycanase (Oryctolagus cuniculus, UniProt P28863). The conditions noted are these: cited from earlier work.
rabbit bone proteoglycanase, sequence (P28863 101-478): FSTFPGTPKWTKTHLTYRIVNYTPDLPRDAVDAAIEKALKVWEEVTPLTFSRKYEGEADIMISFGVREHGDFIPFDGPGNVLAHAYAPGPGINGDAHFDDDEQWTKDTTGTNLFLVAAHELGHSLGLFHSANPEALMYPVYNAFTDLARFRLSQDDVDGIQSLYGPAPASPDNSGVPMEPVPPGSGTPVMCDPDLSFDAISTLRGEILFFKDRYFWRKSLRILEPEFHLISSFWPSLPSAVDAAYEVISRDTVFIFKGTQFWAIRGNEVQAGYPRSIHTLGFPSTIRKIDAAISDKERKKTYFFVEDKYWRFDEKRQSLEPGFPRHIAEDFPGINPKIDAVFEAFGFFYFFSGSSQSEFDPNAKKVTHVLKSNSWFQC
[4] abbreviates: higher Rf isomer (diastereomer), read-out: IC50 ± S.E. Higher Rf isomer.
[5] abbreviates: lower Rf isomer (diastereomer), read-out: IC50 ± S.E. Lower Rf isomer.

stromelysin, sequence (P08254 100-477): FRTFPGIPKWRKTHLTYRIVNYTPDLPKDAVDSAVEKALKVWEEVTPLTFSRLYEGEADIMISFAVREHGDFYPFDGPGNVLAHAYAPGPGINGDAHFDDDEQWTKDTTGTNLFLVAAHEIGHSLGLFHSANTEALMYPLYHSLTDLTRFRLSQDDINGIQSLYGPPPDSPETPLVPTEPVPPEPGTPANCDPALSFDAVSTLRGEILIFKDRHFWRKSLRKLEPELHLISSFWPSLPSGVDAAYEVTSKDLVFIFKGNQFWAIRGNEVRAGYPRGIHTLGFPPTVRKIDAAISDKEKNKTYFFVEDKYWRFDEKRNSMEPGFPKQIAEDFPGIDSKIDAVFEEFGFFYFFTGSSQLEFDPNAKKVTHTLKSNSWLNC

Take `O=C(N[C@@H](Cc1ccccc1)C(=O)NCc1ccccc1)C(CS)CCc1ccccc1` (stereo partly drawn) [Compound 1g, N-(2-Thiomethyl-4-phenylbutanoyl)-(L)-phenylalanine, N-benzylamide]: the “% inh. Higher Rf isomer” value in experiment [1] (higher Rf isomer, @ 1.4 μM) was found to be 63 % inh. In addition, the “% inh. Lower Rf isomer” value in experiment [1] (lower Rf isomer, @ 3.3 μM) worked out at 98 % inh. Broadly, the IC50 is the point on the concentration scale where inhibition reaches its midpoint. Turning to `CC(C)C[C@H](NC(=O)C(CS)CCc1ccccc1)C(=O)Nc1ccccc1` (stereo partly drawn) [Compound 1b, N-(2-Thiomethyl-4-phenylbutanoyl)-(L)-leucine, N-phenylamide], the results for the IC50 in experiment [1] (setting [4]) and in experiment [1] (setting [5]) were 1600 ± 500 nM and 490 ± 100 nM, respectively. The corresponding values for `CC(C)C[C@H](NC(=O)C(CS)CCc1ccccc1)C(=O)NCc1ccccc1` (stereo partly drawn) [Compound 1c, N-(2-Thiomethyl-4-phenylbutanoyl)-(L)-leucine, N-benzylamide] are 7300 ± 3300 nM and 2500 ± 1200 nM.

On to `O=C(O)CCNC(=O)[C@H](Cc1ccccc1)NC(=O)C(CS)CCc1ccccc1` (stereo partly drawn) [Compound 1h, N-(2-Thiomethyl-4-phenylbutanoyl)-(L)-phenylalanine-β-alanine], for which, in experiment [1] (setting [4]), the IC50 was found to be 4100 ± 350 nM.

With `CNC(=O)[C@H](Cc1ccc(OC)cc1)NC(=O)[C@H](CC(C)C)NC(CCNC(=O)OCc1ccccc1)C(=O)O` (stereo partly drawn) [N-[3-(benzyloxycarbonyl)amino-1-carboxy-n-propyl]-L-leucyl-O-methyl-L-tyrosine, N-methylamide], the values for the IC50 in experiment [2] and in experiment [3] were 800 nM and 500 nM, respectively. For the molecule `O=C(N[C@@H](Cc1ccccc1)C(=O)Nc1ccccc1)C(CS)CCc1ccccc1` (stereo partly drawn) [Compound 1f, N-(2-Thiomethyl-4-phenylbutanoyl)-(L)-phenylalanine, N-phenylamide], the IC50 in experiment [1] (setting [4]) came out at 1100 ± 300 nM; in experiment [1] (setting [5]), 2200 ± 800 nM.

Consider `NC(=O)[C@H](Cc1ccccc1)NC(=O)C(CS)CCc1ccccc1` (stereo partly drawn) [Compound 1e, N-(2-Thiomethyl-4-phenylbutanoyl)-(L)-phenylalaninamide], for which the values for the IC50 in experiment [1] (setting [4]) and in experiment [1] (setting [5]) were 3100 ± 500 nM and 1900 ± 600 nM, respectively. For the molecule `CC(C)C[C@H](NC(=O)C(CS)CCc1ccccc1)C(N)=O` (stereo partly drawn) [Compound 1a, N-(2-Thiomethyl-4-phenylbutanoyl)-(L)-leucinamide], the IC50 in experiment [1] (setting [4]) worked out at 3300 ± 400 nM; in experiment [1] (setting [5]), 960 ± 100 nM.
